Source: patent publication US20250361261A1, “CYCLOPENTYL ADENOSINE DERIVATIVE AND PHARMACEUTICAL USE THEREOF” (priority 2022, published 2025)

System: CFA inflammatory pain model
Assay: CFA inflammatory pain model, mechanical pain threshold by VonFrey electronic aesthesiometer
Format: in vivo, Sprague-Dawley (SD) rats
Text: Experimental animals: SPF male Sprague-Dawley (SD) rats, weighing 180±30 g, obtained from Shanghai Sippe-Bk Lab Animal Co., Ltd. Experimental samples: Compounds 1, 2, and 3 and CCPA were used to prepare the corresponding pharmaceutical compositions according to the following formulation amounts and method. [table] Preparation method: Formulation amounts of compounds 1, 2, and 3 and CCPA were separately weighed out, added to a proper amount of tert-butanol/water mixed solution, and dissolved by stirring. Then formulation amounts of dimyristoylphosphatidylcholine (DMPC) and cholesterol were added and dissolved by stirring. The above solutions were made up to volume (25-40 mL), added to vials, and lyophilized in a lyophilizer for later use. When used, the lyophilizates were dissolved in normal saline to 1 mg/mL, 2 mg/mL, 4 mg/mL, and 8 mg/mL. SD rats, 6 to 8-week-old and weighing 150 g-200 g, were divided into a control group, a model control group, and an administration group. A CFA inflammatory pain model was obtained 24 h after 100 μL of complete Freund's adjuvant was injected into the soles of the left feet of the rats in the model control group and the administration group. The injection was performed at left Zusanli, and the injection volume was 100 μL. [table] Note: For the control group, 100 μL of normal saline was injected into the soles of the feet. For the model control group, 100 μL of normal saline was injected into Zusanli after the model was successfully established. A VonFrey electronic aesthesiometer was used to measure the pain threshold, and mechanical pain was used as an evaluation index. Observations of the basal pain threshold were started 1 day before the model was established and ended 14 days after the model was established. Pain thresholds before and after administration for different groups of animals were plotted using Graph Pad Prism 8.3.0 software. Based on the dose-response curve 48 h after administration, the EC50 and EC90 were obtained through fitting.

In the case of `CCCCCCCCCCCCCCC(=O)OC[C@H]1O[C@@H](n2cnc3c(NC4CCCC4)nc(Cl)nc32)[C@H](O)[C@@H]1O` [Compound 1, ((2R,3S,4R,5R)-5-(2-Chloro-6-(cyclopentylamino)-9H-purin-9-yl)-3,4-dihydroxytetrahydrofuran-2-yl)methyl pentadecanoate], the “EC50 change compared to CCPA” value (compared to CCPA) is reported as 4 fold, the “EC90 change compared to CCPA” value (compared to CCPA) is reported as 6 fold and the “EC50 change compared to compound 2” value (compared to compound 2) is reported as ~3 fold. The “EC90 change compared to compound 2” value (compared to compound 2) was ~3 fold.
